Tests used:
[1] = tested on: Homo sapiens; test: Toxicity in healthy human assessed as EEG abnormality at 250 mg/kg, po once daily for 7 days; type: organism-based; parameters: dose 250 mg/kg, route oral; conditions: in vivo, 168 h
[2] = tested on: Homo sapiens; test: Toxicity in healthy human assessed as nausea at 250 […], po once daily for 7 days; type: organism-based; parameters: route oral; conditions: in vivo, 168 h
[3] = Cmax in healthy human at 200 mg/kg, po administered as single dose after 1 day; type: ADME, organism-based; parameters: dose 200 mg/kg, route oral; conditions: in vivo
[4] = Tmax in healthy human at 200 mg/kg, po administered as single dose after 1 day; type: ADME, organism-based; parameters: dose 200 mg/kg, route oral; conditions: in vivo
[5] = AUC (0 to infinity) in healthy human at 200 mg/kg, po administered as single dose after 1 day; type: ADME, organism-based; parameters: time infinity, dose 200 mg/kg, route oral; conditions: plasma
[6] = Cmax in healthy human at 300 mg/kg, po administered as single dose after 1 day; type: ADME, organism-based; parameters: dose 300 mg/kg, route oral; conditions: in vivo
[7] = Tmax in healthy human at 300 mg/kg, po administered as single dose after 1 day; type: ADME, organism-based; parameters: dose 300 mg/kg, route oral; conditions: in vivo
[8] = AUC (0 to infinity) in healthy human at 300 mg/kg, po administered as single dose after 1 day; type: ADME, organism-based; parameters: time infinity, dose 300 mg/kg, route oral; conditions: plasma
[9] = Cmax in healthy human at 250 mg/kg, po administered as single dose after 1 day; type: ADME, organism-based; parameters: dose 250 mg/kg, route oral; conditions: in vivo
[10] = Tmax in healthy human at 250 mg/kg, po administered as single dose after 1 day; type: ADME, organism-based; parameters: dose 250 mg/kg, route oral; conditions: in vivo
[11] = AUC (0 to infinity) in healthy human at 250 mg/kg, po administered as single dose after 1 day; type: ADME, organism-based; parameters: time infinity, dose 250 mg/kg, route oral; conditions: plasma
[12] = Cmax in healthy human at 150 […], po once daily for 7 days; type: ADME, organism-based; parameters: dose 150 mg/kg, route oral; conditions: in vivo
[13] = Tmax in healthy human at 150 […], po once daily for 7 days; type: ADME, organism-based; parameters: dose 150 mg/kg, route oral; conditions: in vivo
[14] = AUC (0 to 24 hrs) in healthy human at 150 […], po once daily for 7 days; type: ADME, organism-based; parameters: time < 24 hr, dose 150 mg/kg, route oral; conditions: plasma
[15] = Cmax in healthy human at 200 mg/kg, po once daily for 7 days; type: ADME, organism-based; parameters: dose 200 mg/kg, route oral; conditions: in vivo
[16] = Tmax in healthy human at 200 mg/kg, po once daily for 7 days; type: ADME, organism-based; parameters: dose 200 mg/kg, route oral; conditions: in vivo
[17] = AUC (0 to 24 hrs) in healthy human at 200 mg/kg, po once daily for 7 days; type: ADME, organism-based; parameters: time < 24 hr, dose 200 mg/kg, route oral; conditions: plasma
[18] = Cmax in healthy human at 250 mg/kg, po once daily for 7 days; type: ADME, organism-based; parameters: dose 250 mg/kg, route oral; conditions: in vivo
[19] = Tmax in healthy human at 250 mg/kg, po once daily for 7 days; type: ADME, organism-based; parameters: dose 250 mg/kg, route oral; conditions: in vivo
[20] = AUC (0 to 24 hrs) in healthy human at 250 mg/kg, po once daily for 7 days; type: ADME, organism-based; parameters: time < 24 hr, dose 250 mg/kg, route oral; conditions: plasma
[21] = Cmax in healthy human at 150 […], po once daily for 7 days measured after 1 day of last dose; type: ADME, organism-based; parameters: dose 150 mg/kg, route oral; conditions: in vivo
[22] = Tmax in healthy human at 150 […], po once daily for 7 days measured after 1 day of last dose; type: ADME, organism-based; parameters: dose 150 mg/kg, route oral; conditions: in vivo
[23] = AUC (0 to 24 hrs) in healthy human at 150 […], po once daily for 7 days measured after 1 day of last dose; type: ADME, organism-based; parameters: time < 24 hr, dose 150 mg/kg, route oral; conditions: plasma
[24] = Cmax in healthy human at 200 mg/kg, po once daily for 7 days measured after 1 day of last dose; type: ADME, organism-based; parameters: dose 200 mg/kg, route oral; conditions: in vivo
[25] = Tmax in healthy human at 200 mg/kg, po once daily for 7 days measured after 1 day of last dose; type: ADME, organism-based; parameters: dose 200 mg/kg, route oral; conditions: in vivo
[26] = AUC (0 to 24 hrs) in healthy human at 200 mg/kg, po once daily for 7 days measured after 1 day of last dose; type: ADME, organism-based; parameters: time < 24 hr, dose 200 mg/kg, route oral; conditions: plasma
[27] = Cmax in healthy human at 250 mg/kg, po once daily for 7 days measured after 1 day of last dose; type: ADME, organism-based; parameters: dose 250 mg/kg, route oral; conditions: in vivo
[28] = Tmax in healthy human at 250 mg/kg, po once daily for 7 days measured after 1 day of last dose; type: ADME, organism-based; parameters: dose 250 mg/kg, route oral; conditions: in vivo
[29] = AUC (0 to 24 hrs) in healthy human at 250 mg/kg, po once daily for 7 days measured after 1 day of last dose; type: ADME, organism-based; parameters: time < 24 hr, dose 250 mg/kg, route oral; conditions: plasma
[30] = tested on: Homo sapiens; test: Toxicity in healthy human assessed as back pain at 300 mg/kg, po administered as single dose; type: organism-based; parameters: dose 300 mg/kg, route oral; conditions: in vivo
[31] = tested on: Homo sapiens; test: Toxicity in healthy human assessed as puncture site pain at 300 […], po administered as single dose; type: organism-based; parameters: route oral; conditions: in vivo
[32] = tested on: Homo sapiens; test: Toxicity in healthy human assessed as increase in blood […] at 300 […], po once daily for 7 days; type: organism-based; parameters: route oral; conditions: in vivo, 168 h
[33] = tested on: Homo sapiens; test: Toxicity in healthy human assessed as back pain at 250 mg/kg, po once daily for 7 days; type: organism-based; parameters: dose 250 mg/kg, route oral; conditions: in vivo, 168 h
[34] = tested on: Homo sapiens; test: Toxicity in healthy human assessed as puncture site pain at 250 […], po once daily for 7 days; type: organism-based; parameters: route oral; conditions: in vivo, 168 h
[35] = tested on: Homo sapiens; test: Toxicity in healthy human assessed as increase in blood […] at 250 […], po once daily for 7 days; type: organism-based; parameters: route oral; conditions: in vivo, 168 h
[36] = tested on: Homo sapiens; test: Cardiotoxicity in healthy human assessed as change in corrected QT interval at 150 […], po after 10 days by ECG; type: toxicity, organism-based; parameters: dose 150 mg/kg, route oral; conditions: in vivo, 240 h

COC[C@@H](c1ccc(C(F)(F)F)cc1)N1CCN(C2(C)CCN(C(=O)c3c(C)ncnc3C)CC2)C[C@@H]1C [VICRIVIROC]
Activity [1]: 38% | Activity [2]: 13% | Cmax [3]: 731 ng/mL | Tmax [4]: 2 h | AUC(0-inf) [5]: 6050 ng·h/mL | Cmax [6]: 1130 ng/mL | Tmax [7]: 2.9 h | AUC(0-inf) [8]: 10100 ng·h/mL | Cmax [9]: 984 ng/mL | Tmax [10]: 2 h | AUC(0-inf) [11]: 11000 ng·h/mL | Cmax [12]: 649 ng/mL | Tmax [13]: 1.5 h | AUC at 24 h [14]: 6060 ng·h/mL | Cmax [15]: 949 ng/mL | Tmax [16]: 2 h | AUC at 24 h [17]: 8140 ng·h/mL | Cmax [18]: 1040 ng/mL | Tmax [19]: 2 h | AUC at 24 h [20]: 8750 ng·h/mL | Cmax [21]: 474 ng/mL | Tmax [22]: 1.75 h | AUC at 24 h [23]: 3260 ng·h/mL | Cmax [24]: 838 ng/mL | Tmax [25]: 1.75 h | AUC at 24 h [26]: 5390 ng·h/mL | Cmax [27]: 791 ng/mL | Tmax [28]: 1.5 h | AUC at 24 h [29]: 5050 ng·h/mL | Activity [30]: 20% | Activity [31]: 17% | Activity [32]: 10% | Activity [33]: 20% | Activity [34]: 17% | Activity [35]: 10% | Activity [36]: Non-toxic

Reference: ChEMBL document CHEMBL1255486, “Effect of vicriviroc on the QT/corrected QT interval and central nervous system in healthy subjects” (Antimicrob Agents Chemother, 2010)
